Measurements: patent US20120148604A1, “TRP INHIBITORS AND USES THEREOF” (TRANSPOSAGEN BIOPHARMACEUTICALS, INC., priority 2009, published 2012)
Entries after “also recorded” stand apart in the source; their conditions may differ. Like-named read-outs stand apart in the source and are kept apart here. Values belong to the molecule of their own block, whether it stands above or below them.

How the values were obtained:
[1] = STZ induced diabetes, von Frey filament mechanical pain threshold; type: in vivo, rat; settings: STZ treated diabetic control rats vs non-treated control rats
Description: Von Frey Filament Test (Chang model): The effect of compounds on mechanical allodynia can be determined by the von Frey filament test in rats with a tight ligation of the L-5 spinal nerve: a model of painful peripheral neuropathy. The surgical procedure is performed as described by Kim et al., Pain 50: 355-363 (1992). A calibrated series of von Frey filaments are used to assess mechanical allodynia (Chaplan et al., J. Neurosci. Methods 53: 55-63 (1994)). Filaments of increasing stiffness are applied perpendicular to the midplantar surface in the sciatic nerve distribution of the left hindpaw. The filaments are slowly depressed until bending occurred and are then held for 4-6 seconds. Flinching and licking of the paw and paw withdrawal on the ligated side are considered positive responses.
Since many patients with diabetes mellitus also suffer from hyperalgesia-derived neuropathic pain, the Trpc4(−/−) rats were studied for this indication. Groups of control and Trpc4 knockout rats were treated with streptozotocin (STZ) in order to induce diabetes. Rats were defined to be in a diabetic state if hyperglycemia and glucosuria occurred. The mechanical induced von Frey filament method was again used to establish altered pain response. When STZ non-treated control rats were compared to STZ diabetic control rats the pain response to mechanical induction was very drastic. […]

[2] = tested on: TRPC4; settings: HEK cells, cited from earlier work
[3] = Paclitaxel induced cold allodynia, acetone cold response; type: in vivo, rat
Description: Cancer patients who are treated with chemotherapy drugs such as paclitaxel often display sensory abnormalities and symptoms of neuropathic pain such as sudden unexplainable pain attacks. In order to study the effects of cation channels on paclitaxel induced pain, Trpc4−/− rats were treated with the anti-cancer drug. Since one of the major symptoms of patients who are treated with paclitaxel is cold allodynia, control and Trpc4−/− rats were exposed to paclitaxel and tested for acetone cold response. Previously control non-paclitaxel treated and paclitaxel treated WT rats were studied for differences in cold allodynia. Based on established cold score calculations the non-treated rats scored an average of 8 while the paclitaxel treated WT rats scored an average of 15. […] When control and Trpc4−/− treated rats were compared the difference in pain sensitivity was dramatic. […] The reversion to nearly wild type cold allodynia score was remarkable in Trpc4 knockout rats.

[4] = tested on: TRPC4; settings: dominant negative N-term fragment; cited from earlier work

Molecule: CN(N=O)C(=O)N[C@H]1C(O)O[C@H](CO)[C@@H](O)[C@@H]1O (mixture of isomers) [STZ, streptozotocin]
decrease of threshold for pain [1]: 40%

Molecule: C=O [Formalin]
duration of nociceptive activity (rubbing face and flipping the head) (Formalin 1.5% 50 μl sc upper lip): 25 to 30 min | start of the activity (wild type rats, Formalin 1.5% 50 μl sc): 10 to 12 s

Molecule: Cl.NCCCCCCNS(=O)(=O)c1cccc2c(Cl)cccc12 [W-7, N-(6-Aminohexyl)-5-chloro-1-naphthalenesulfonamide hydrochloride]
effect on TRPC4 current ([2]; hydrochloride): significantly decreases TRPC4 current; also recorded: inhibited

Molecule: Clc1ccc(C(c2ccc(Cl)cc2)n2cc[n+](CC(OCc3ccc(Cl)cc3Cl)c3ccc(Cl)cc3Cl)c2)cc1 (stereo not drawn) [calmidazolium]
effect on TRPC4 current [2]: not inhibited | effect on TRPC4 current ([2]; listed as CMZ): unable to inhibit TRPC4 current

cold score ([3]; paclitaxel treated Trpc4 knockout rats): 9 | cold score (average) ([3]; paclitaxel treated WT rats, non-treated rats scored 8): 15
Molecule: CC(=O)O[C@H]1C(=O)[C@@]2(C)[C@H]([C@H](OC(=O)c3ccccc3)[C@]3(O)C[C@H](OC(=O)[C@H](O)[C@@H](NC(=O)c4ccccc4)c4ccccc4)C(C)=C1C3(C)C)[C@]1(OC(C)=O)CO[C@@H]1C[C@@H]2O [paclitaxel]

B1: first ankyrin domain: dominant negative N-term fragment of TRPC4, residues 61-121 (rat and mouse sequence in b219) (protein, UniProt Q9QUQ5 61-121, looked up, fragment)
chain: ININCIDPLGRTALLIAIENENLELIELLLSFNVYVGDALLHAIRKEVVGAVELLLNHKKP
suppression of TRPC4 currents [4]: successfully suppress TRPC4 currents
